From ChEMBL document CHEMBL1201862, “PubChem BioAssay data set” (2004)
Active and inactive are the calls of the source.

Legend:
HeLa = test: HeLa cell cytotoxicity, dose response, cytotoxicity control for MITF activator project, CellTiter-Glo luminescence, cherry-pick samples (AID 540259); type: functional, cell-based; settings: Homo sapiens
[1] = Luminescence Cell-Based Dose Retest to Confirm Inhibitors of Cancer Stem Cells. [Related pubchem assays (depositor defined):AID2717, AID2721]; type: functional; settings: Homo sapiens
[2] = molecular target: Hepatocyte nuclear factor 4-alpha (Homo sapiens, UniProt P41235); type: functional, cell-based;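 further: biochemical luminescence-based dose-response counterscreen measuring inhibition of HNF4 dimerization, run alongside a screen for blockers of ABHD5–perilipin-5 interaction; split luciferase complementation of HNF4 fusion proteins in cell lysate measuring dimerization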
[3] = THP-1 cell cytotoxicity, dose response, cytotoxicity control for Vif-APOBEC3G degradation inhibitor project, THP-1 cells (AID 1117359); type: functional; settings: Human immunodeficiency virus 1, THP-1
HEK293 [4] = test: cells; settings: Homo sapiens
A-375 = test: A375 melanoma cell viability reduction, dose response, counter-screen for MITF modulator project, cherry-pick samples, set 2 (AID 540335); type: functional, cell-based; settings: Homo sapiens
HEK293 [5] = test: cells; settings: Homo sapiens; remark: listed apart in the source
[6] = molecular target: T1, Microphthalmia-associated transcription factor (Homo sapiens, UniProt O75030); test: TRPM1 promoter luciferase signal decrease, dose response, MITF inhibitor project, cell-based, SK-MEL-5, cherry-picked, set 3 (AID 493073); type: functional
T1 sequence (O75030 whole entry): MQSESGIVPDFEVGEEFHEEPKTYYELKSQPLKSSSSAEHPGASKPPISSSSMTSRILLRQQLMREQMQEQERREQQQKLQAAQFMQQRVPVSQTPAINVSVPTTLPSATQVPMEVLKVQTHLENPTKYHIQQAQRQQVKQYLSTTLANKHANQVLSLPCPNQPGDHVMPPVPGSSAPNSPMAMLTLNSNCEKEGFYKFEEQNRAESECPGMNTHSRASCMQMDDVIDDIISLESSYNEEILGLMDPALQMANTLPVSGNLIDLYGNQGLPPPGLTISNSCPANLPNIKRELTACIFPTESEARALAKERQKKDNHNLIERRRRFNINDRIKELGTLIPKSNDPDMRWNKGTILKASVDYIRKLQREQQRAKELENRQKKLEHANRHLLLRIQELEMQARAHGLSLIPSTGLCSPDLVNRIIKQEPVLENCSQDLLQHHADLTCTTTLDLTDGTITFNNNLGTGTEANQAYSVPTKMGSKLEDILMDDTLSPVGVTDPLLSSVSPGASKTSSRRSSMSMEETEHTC

Beta-galactosidase = Beta-galactosidase (Escherichia coli, UniProt Q8VNN2); test: PubChem AID 485352; type: functional
[7] = molecular target: T2, Type-1 angiotensin II receptor (Homo sapiens, UniProt P30556); test: AT1 receptor antagonists, dose response, selectivity assay for APJ receptor antagonist project, cell-based, uHTS hits (AID 463214); type: functional;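 further: antagonist potency against angiotensin II stimulated AT1 response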
T2 sequence (P30556 whole entry): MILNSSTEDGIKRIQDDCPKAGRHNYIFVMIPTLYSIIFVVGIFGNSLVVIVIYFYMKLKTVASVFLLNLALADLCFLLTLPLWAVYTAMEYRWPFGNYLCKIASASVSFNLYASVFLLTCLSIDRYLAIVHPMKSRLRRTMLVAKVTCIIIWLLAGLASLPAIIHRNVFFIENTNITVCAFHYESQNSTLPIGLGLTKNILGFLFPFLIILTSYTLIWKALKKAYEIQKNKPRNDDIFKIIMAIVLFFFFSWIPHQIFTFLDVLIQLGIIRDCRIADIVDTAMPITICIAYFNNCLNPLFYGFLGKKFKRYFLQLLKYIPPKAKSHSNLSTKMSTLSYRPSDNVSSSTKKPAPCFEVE

[8] = molecular target: T3, Endoribonuclease toxin MazF (Escherichia coli K-12, UniProt P0AE70); test: MazF toxin RNase activators, dose response, biochemical, fluorescence, single-stranded RNA substrate, uHTS hits (AID 588481); type: functional
T3 sequence (P0AE70 whole entry): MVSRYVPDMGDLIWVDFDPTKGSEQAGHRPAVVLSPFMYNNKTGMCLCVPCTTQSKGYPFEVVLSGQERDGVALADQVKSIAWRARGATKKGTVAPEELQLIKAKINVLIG

[9] = molecular target: T3, Endoribonuclease toxin MazF; test: fluorescent RNA oligo signal without MazF, dose response, counter-screen for MazEF activator project, biochemical, fluorescence, single-stranded RNase substrate (AID 588502); type: functional
Caspase-3 [10] = molecular target: T4, Caspase-3 (Homo sapiens, UniProt P42574); test: SAR Analysis of small molecule inhibitors of Sentrin-specific proteases (SENPs) using a Caspase-3 Selectivity assay. [Related pubchem assays (depositor defined):AID2540, AID2599, AID434973, AID489001]; type: functional
T4 sequence (P42574 whole entry): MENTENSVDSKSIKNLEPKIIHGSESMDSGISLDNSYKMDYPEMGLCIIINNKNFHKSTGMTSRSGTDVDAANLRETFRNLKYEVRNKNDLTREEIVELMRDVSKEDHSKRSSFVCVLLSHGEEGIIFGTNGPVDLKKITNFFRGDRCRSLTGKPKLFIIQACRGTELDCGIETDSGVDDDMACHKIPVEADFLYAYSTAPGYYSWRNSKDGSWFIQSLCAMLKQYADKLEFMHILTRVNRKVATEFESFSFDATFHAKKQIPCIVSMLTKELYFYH

[11] = molecular target: T5, Sentrin-specific protease 7 (Homo sapiens, UniProt Q9BQF6); type: functional;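 further: Luminescence-based dose-response confirmation of ultra-high-throughput screening hits, measuring inhibition of SENP7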
T5 sequence (Q9BQF6 whole entry): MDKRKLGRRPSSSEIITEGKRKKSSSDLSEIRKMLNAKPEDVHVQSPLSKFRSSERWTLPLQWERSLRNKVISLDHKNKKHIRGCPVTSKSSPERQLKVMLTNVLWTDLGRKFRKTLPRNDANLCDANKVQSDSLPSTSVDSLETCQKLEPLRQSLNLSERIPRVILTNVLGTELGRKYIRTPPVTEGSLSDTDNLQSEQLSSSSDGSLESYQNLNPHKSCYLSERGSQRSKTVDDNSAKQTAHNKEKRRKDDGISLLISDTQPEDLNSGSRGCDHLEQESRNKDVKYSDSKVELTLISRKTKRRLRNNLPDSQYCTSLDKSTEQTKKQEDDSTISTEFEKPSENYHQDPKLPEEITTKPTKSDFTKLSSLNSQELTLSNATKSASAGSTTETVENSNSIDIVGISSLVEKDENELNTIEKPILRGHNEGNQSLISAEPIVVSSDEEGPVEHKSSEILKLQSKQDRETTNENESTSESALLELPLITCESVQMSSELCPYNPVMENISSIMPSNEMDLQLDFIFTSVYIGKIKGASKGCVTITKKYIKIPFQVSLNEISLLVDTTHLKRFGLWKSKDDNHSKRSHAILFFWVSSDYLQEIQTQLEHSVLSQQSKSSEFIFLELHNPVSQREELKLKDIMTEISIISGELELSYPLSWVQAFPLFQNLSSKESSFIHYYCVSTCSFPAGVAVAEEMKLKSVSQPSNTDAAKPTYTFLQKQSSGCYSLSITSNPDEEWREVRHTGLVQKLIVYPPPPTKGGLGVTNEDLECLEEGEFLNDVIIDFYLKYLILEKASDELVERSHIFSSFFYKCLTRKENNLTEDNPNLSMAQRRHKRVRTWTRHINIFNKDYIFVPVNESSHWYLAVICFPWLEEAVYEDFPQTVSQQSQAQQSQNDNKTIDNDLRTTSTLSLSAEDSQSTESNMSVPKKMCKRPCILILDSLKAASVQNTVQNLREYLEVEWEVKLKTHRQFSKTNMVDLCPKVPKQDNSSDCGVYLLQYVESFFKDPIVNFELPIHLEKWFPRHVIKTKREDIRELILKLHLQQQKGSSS

[12] = molecular target: T6, Sentrin-specific protease 6 (Homo sapiens, UniProt Q9GZR1); test: SAR Analysis of small molecule inhibitors of Sentrin-specific protease 6 (SENP6) using a Luminescent assay. [Related pubchem assays (depositor defined):AID2582, AID2599]; type: functional
T6 sequence (Q9GZR1 whole entry): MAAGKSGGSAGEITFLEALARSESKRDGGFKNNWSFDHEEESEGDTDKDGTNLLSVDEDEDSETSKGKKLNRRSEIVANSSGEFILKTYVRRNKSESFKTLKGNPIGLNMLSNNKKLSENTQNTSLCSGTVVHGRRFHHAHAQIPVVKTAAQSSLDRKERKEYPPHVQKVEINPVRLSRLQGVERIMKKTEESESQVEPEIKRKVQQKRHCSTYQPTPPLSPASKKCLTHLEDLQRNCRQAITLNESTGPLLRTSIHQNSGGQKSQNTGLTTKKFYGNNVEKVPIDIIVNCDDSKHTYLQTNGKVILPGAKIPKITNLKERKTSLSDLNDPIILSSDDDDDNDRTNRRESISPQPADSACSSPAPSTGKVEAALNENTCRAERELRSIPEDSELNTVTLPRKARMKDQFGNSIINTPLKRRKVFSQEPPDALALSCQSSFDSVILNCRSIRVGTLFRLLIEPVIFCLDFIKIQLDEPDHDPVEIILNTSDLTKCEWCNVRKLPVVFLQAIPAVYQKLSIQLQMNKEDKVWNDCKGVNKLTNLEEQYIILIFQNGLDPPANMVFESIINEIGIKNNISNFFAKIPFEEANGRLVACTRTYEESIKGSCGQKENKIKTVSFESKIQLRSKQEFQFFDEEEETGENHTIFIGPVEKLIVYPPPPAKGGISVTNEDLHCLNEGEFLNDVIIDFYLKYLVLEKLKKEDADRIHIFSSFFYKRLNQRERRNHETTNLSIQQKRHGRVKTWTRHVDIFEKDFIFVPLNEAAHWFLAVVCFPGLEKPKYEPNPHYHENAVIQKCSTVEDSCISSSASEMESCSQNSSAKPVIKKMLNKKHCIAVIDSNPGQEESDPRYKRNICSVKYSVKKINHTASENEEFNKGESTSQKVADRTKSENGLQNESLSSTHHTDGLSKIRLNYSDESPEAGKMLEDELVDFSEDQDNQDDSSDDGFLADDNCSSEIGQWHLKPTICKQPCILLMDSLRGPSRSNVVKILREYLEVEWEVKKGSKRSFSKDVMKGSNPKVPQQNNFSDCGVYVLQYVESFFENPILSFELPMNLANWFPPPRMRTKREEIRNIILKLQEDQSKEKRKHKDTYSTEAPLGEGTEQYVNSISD

[13] = molecular target: T5, Sentrin-specific protease 7; test: SENP7 protease inhibitors, SAR follow-up, biochemical, luminescence (AID 504497); type: functional
[14] = molecular target: T7, Sentrin-specific protease 8 (Homo sapiens, UniProt Q96LD8); type: functional;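 further: luminescence read-out of SENP8 inhibition, dose-response confirmation following an ultra-high-throughput screen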
T7 sequence (Q96LD8 whole entry): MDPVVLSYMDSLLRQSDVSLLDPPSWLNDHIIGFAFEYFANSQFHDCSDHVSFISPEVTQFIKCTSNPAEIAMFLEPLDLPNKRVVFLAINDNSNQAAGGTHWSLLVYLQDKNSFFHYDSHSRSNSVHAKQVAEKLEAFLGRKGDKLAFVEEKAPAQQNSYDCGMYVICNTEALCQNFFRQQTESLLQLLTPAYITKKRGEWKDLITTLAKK

[15] = molecular target: T8, Oxysterols receptor LXR-beta (Homo sapiens, UniProt P55055); type: functional, cell-based;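 further: agonist activity at LXR measured by a cell-based luminescence readout across a dose range, run as a counterscreen for daf-12 agonists; HEK293 cells with Gal4-LXR fusion and GAL4-driven luciferase reporter; potency for activation of Gal4-LXR reporter so compounds are agonists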
T8 sequence (P55055 whole entry): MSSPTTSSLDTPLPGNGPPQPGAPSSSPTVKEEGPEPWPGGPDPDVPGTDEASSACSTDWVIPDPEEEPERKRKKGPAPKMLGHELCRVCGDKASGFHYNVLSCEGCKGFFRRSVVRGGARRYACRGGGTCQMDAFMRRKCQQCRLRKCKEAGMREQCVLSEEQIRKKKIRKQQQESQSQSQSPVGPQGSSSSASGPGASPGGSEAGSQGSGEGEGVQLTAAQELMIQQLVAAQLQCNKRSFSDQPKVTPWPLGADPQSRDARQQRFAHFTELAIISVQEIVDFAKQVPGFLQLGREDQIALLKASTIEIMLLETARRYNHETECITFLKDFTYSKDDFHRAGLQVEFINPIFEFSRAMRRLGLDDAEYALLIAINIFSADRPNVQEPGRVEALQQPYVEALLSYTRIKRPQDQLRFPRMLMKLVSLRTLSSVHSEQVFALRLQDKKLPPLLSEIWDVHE

[16] = molecular target: T7, Sentrin-specific protease 8; test: SENP8 protease inhibitors, SAR follow-up, biochemical, luminescence (AID 504501); type: functional
[17] = molecular target: T6, Sentrin-specific protease 6; type: functional
Caspase-3 [18] = molecular target: T4, Caspase-3; type: functional
[19] = molecular target: Ras and Rab interactor 1/Tyrosine-protein kinase ABL1 (Homo sapiens, UniProt P00519+Q13671); type: functional;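 further: biochemical TR-FRET dose-response test measuring inhibition of binding between Rin1 and Abl proteins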
Aurora kinase A = Aurora kinase A (Homo sapiens, UniProt O14965); type: functional;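 further: value from the Navigating the Kinome kinase panel profiling, panel entry STK6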
[20] = molecular target: Cyclin-dependent kinase 19 (Homo sapiens, UniProt Q9BWU1); test: Navigating the Kinome. Panel member name: CDC2L6; type: functional
Sequence of Cyclin-dependent kinase 19 (Q9BWU1 whole entry): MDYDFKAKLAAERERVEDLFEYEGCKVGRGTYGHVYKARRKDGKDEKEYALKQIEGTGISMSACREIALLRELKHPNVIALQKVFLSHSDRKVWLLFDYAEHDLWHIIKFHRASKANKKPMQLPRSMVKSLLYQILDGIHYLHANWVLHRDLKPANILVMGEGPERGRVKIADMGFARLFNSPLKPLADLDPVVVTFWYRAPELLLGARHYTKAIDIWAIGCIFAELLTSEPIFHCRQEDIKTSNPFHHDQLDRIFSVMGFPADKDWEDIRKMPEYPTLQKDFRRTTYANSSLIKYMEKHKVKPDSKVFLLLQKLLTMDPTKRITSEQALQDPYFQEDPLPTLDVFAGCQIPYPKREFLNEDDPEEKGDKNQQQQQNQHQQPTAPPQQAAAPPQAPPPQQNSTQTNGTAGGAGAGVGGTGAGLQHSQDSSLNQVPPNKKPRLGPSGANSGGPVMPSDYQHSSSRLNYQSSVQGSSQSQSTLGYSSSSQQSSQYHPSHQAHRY

Sequence of Beta-galactosidase (Q8VNN2 whole entry): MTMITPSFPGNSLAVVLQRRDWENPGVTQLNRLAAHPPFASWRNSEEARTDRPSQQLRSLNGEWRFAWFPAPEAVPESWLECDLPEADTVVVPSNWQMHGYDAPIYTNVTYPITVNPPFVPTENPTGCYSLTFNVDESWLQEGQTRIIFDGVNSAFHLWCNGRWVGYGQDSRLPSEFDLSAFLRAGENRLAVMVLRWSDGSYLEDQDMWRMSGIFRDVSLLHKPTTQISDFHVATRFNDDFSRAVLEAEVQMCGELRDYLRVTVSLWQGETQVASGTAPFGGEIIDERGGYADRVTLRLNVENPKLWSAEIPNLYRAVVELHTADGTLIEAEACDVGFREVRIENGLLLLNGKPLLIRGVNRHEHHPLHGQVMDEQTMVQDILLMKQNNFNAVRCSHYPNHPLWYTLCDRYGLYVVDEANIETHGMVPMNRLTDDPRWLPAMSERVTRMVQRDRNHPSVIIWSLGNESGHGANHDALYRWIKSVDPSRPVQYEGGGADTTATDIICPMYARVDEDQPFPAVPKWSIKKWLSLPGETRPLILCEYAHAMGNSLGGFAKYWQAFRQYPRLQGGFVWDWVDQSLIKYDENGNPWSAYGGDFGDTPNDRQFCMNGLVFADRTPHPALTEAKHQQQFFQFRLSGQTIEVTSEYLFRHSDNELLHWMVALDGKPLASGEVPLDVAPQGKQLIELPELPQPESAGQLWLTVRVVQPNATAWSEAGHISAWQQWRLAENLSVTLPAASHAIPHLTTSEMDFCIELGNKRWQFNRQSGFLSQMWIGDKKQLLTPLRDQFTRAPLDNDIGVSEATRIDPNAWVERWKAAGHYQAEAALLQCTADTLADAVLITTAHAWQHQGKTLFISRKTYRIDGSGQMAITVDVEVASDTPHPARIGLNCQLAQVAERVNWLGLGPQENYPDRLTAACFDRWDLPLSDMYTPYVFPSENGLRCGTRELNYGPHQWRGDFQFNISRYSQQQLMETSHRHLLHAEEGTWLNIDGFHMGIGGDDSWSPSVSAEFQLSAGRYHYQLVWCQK
Sequence of Ras and Rab interactor 1/Tyrosine-protein kinase ABL1 (P00519 whole entry): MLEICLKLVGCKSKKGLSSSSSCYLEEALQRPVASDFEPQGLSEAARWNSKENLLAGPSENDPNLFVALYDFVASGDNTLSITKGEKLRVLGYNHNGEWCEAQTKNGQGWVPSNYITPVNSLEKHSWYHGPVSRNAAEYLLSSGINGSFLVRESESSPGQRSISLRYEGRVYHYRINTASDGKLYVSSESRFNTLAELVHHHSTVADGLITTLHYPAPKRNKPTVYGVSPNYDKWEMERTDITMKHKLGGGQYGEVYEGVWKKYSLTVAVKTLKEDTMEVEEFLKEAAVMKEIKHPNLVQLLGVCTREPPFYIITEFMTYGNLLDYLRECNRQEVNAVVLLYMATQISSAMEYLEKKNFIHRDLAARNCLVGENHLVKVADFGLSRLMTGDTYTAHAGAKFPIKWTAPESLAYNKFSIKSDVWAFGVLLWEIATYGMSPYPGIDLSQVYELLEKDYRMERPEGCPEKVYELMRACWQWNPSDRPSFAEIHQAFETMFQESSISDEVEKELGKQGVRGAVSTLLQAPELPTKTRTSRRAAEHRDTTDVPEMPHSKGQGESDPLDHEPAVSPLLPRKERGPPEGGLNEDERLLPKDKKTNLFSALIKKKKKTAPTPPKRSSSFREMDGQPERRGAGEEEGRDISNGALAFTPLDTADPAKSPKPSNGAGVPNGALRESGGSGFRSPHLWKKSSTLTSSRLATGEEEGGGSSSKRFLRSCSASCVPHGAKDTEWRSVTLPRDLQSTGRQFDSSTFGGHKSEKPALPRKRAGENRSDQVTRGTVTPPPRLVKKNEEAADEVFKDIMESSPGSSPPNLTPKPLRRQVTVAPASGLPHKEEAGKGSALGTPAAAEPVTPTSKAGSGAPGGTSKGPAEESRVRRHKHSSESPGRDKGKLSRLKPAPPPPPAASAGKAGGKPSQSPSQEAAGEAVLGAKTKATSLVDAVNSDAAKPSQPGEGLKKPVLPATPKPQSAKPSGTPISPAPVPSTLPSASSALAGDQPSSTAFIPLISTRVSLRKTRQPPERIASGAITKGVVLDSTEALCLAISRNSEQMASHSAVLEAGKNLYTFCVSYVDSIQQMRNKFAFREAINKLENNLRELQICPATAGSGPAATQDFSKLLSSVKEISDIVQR
Sequence of Ras and Rab interactor 1/Tyrosine-protein kinase ABL1 (Q13671 whole entry): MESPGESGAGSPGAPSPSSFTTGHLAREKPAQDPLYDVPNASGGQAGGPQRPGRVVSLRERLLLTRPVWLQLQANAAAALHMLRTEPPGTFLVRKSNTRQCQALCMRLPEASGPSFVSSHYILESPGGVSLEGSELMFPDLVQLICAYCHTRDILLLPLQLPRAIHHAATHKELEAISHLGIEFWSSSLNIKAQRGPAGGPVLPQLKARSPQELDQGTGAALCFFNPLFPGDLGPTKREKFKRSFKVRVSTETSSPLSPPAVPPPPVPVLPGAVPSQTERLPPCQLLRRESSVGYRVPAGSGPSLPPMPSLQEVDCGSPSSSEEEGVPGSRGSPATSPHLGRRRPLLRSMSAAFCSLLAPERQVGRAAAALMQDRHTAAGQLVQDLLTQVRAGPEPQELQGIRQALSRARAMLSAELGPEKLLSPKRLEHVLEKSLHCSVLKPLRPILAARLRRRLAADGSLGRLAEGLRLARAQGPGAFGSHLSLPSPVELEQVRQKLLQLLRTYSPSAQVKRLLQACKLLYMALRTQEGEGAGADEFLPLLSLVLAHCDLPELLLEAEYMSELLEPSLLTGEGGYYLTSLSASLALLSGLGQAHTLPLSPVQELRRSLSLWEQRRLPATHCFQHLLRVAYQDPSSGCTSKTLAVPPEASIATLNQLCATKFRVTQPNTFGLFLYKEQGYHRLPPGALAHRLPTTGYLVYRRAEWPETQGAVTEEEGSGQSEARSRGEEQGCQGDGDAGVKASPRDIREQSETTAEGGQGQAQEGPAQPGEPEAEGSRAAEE
Sequence of Hepatocyte nuclear factor 4-alpha (P41235 whole entry, the tested form may be a part): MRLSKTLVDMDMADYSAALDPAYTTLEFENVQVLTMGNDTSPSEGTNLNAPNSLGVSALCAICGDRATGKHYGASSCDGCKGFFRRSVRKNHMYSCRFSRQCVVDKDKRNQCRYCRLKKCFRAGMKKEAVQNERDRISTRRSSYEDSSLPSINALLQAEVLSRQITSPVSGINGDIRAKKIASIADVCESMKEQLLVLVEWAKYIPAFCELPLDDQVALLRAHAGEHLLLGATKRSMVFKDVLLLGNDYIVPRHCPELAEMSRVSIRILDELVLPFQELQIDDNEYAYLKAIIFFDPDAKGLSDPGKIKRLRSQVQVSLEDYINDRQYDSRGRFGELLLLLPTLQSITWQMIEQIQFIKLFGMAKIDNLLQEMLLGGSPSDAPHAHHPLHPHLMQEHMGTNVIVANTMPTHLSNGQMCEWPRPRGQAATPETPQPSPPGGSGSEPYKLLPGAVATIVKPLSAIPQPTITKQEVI
Sequence of Aurora kinase A (O14965 whole entry): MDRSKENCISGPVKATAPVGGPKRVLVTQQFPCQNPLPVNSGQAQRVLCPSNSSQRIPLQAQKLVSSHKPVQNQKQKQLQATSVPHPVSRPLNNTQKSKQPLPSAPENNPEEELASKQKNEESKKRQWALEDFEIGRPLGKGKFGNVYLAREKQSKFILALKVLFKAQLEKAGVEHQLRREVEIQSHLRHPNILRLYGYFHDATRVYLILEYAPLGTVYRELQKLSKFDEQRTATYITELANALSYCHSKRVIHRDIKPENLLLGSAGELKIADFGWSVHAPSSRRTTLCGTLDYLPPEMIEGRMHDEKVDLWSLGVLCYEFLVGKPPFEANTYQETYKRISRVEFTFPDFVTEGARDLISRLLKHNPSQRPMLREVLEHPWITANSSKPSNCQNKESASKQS

Structure (SMILES): Cc1ccsc1CCNC(=O)C1CCC(=O)N(CCc2cccc(F)c2)C1 (stereo not given)
- AC50 (HeLa): 99.1 µM (active)

Structure (SMILES): O=C1NC(=O)N(Cc2ccccc2)C(=O)/C1=C\C=C\c1ccco1
- AC50 [1]: 1.48 µM (active)
- IC50 [2]: 1.59 µM (active)
- CC50 [3]: > 40 µM (active)
- EC50 (HEK293 [4]): > 59.6 µM (inactive)
- AC50 (A-375): 30.6 µM (active)
- EC50 (HEK293 [5]): > 59.6 µM (inactive)
- AC50 [6]: 6.29 µM (active)

Structure (SMILES): NC(S)=NN=C(S)Nc1ccccc1
- EC50 (Beta-galactosidase): > 40 µM (inactive)
- IC50 [7]: > 40 µM (not active)

Structure (SMILES): CC(C)(C)c1ccc(C(=O)CSc2nc3ccccc3c(=O)[nH]2)cc1
- EC50 [8]: > 99 µM (inactive)
- EC50 [9]: > 99 µM (inactive)

Structure (SMILES): c1ccc(Nc2nc(-c3ccccc3)ns2)cc1
- IC50 (Caspase-3 [10]): 7.8 µM (active)
- IC50 [11]: 2.1 µM (active)
- IC50 [12]: 1.9 µM (active)
- IC50 [13]: 1.7 µM (active)
- IC50 [14]: 2.41 µM (active)
- EC50 [15]: > 67.6 µM (inactive)
- IC50 [16]: 2.5 µM (active)
- IC50 [17]: 2.19 µM (active)
- IC50 (Caspase-3 [18]): 18.8 µM (active)

Structure (SMILES): COc1cccc(NC(=O)C(=O)NCCC2CCCCN2S(=O)(=O)c2cccs2)c1 (stereo not given)
- AC50 (HeLa): 239 µM (active)

Structure (SMILES): CC(C)(C)OC(=O)N1CCC(C(=O)Nc2ccc(C(=O)N3CCCCC3)cc2)CC1
- IC50 [19]: 21.9 µM (inactive)

Structure (SMILES): Cc1ccc(C)c(NC(=O)Nc2ccc(-c3c(C)sc4ncnc(N)c34)cc2)c1
- Ki (Aurora kinase A): 0.251 µM (active)
- Ki [20]: > 100 µM (inactive)
